Laboratory results from patent US20240150377A1, “MODULATORS OF CYSTIC FIBROSIS TRANSMEMBRANE CONDUCTANCE REGULATOR” (VERTEX PHARMACEUTICALS INCORPORATED, priority 2020, published 2024).
pEC50: −log10 of the molar value. Like-named read-outs stand apart in the source and are kept apart here. Blank lines part the entries; values can stand above or below the compound they belong to.

Target: T1, CFTR (Homo sapiens, UniProt P13569, DEL508-508)
T1 construct: endogenous in cells; host or cells: primary human bronchial epithelial cells from CF subjects (F508del/MF-HBE), differentiated at air-liquid interface
T1 sequence (P13569 with tags, fused parts or gaps DEL508-508): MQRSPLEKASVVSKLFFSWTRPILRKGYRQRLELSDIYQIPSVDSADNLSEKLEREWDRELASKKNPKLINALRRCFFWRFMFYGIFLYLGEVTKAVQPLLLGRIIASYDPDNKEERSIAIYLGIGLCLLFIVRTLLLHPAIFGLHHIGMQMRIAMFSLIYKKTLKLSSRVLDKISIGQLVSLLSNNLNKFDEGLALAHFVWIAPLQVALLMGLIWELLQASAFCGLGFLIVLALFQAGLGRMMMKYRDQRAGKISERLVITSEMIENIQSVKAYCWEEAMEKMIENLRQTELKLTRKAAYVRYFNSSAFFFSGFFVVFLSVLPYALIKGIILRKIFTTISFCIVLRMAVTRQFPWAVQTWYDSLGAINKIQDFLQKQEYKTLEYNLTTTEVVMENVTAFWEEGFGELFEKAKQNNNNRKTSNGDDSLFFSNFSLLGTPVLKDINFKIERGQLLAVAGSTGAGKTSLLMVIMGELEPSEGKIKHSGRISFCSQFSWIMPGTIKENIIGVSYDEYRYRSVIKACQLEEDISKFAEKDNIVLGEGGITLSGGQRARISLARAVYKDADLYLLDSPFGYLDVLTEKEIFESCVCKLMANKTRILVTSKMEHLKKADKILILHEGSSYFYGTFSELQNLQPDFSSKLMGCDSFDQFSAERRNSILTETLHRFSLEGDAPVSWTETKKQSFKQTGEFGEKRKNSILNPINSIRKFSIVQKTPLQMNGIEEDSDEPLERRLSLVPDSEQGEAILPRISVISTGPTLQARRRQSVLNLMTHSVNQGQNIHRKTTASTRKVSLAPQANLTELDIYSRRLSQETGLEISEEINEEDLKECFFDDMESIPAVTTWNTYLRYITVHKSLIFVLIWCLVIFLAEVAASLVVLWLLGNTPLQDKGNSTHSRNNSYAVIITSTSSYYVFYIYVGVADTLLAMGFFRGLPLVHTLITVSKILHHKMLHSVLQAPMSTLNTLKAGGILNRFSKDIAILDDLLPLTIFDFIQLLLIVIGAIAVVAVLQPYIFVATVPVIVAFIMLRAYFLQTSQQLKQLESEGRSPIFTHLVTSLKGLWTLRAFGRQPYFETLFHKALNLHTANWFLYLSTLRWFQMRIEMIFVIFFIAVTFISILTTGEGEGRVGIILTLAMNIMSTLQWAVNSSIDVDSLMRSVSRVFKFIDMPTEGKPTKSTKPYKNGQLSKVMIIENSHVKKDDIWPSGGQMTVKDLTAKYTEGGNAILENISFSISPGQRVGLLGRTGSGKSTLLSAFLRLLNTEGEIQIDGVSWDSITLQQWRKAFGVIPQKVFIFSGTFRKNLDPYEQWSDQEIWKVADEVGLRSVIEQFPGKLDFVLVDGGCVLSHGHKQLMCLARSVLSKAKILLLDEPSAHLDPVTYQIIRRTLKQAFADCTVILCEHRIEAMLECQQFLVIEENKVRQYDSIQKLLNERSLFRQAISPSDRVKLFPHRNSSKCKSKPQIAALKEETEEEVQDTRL
Experiment: HBE assay: Ussing chamber assay of CFTR-mediated short-circuit currents
Assay type: cell-based
Conditions: for pEC50: read-out: HBE EC50
In short: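 CFTR-mediated Isc (μA/cm²) equals the peak response to apical 20 μM forskolin minus the residual after a 20 μM each BPO/GlyH-101/CFTR inhibitor 172 cocktail, recorded in Ussing chambers at Vhold 0 mV, 37 °C, pH 7.4, with 30 μM apical amiloride. Cells were F508del/MF HBE cultures preincubated 18-24 h with corrector (concentration range or 10 μM) plus 1 μM ivacaftor in 20% human serum.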

[1] = Table 13, at 10 μM, read-out: HBE Activity at 10 μM (%)
[2] = Table 12, read-out: HBE Max Activity (%)
[3] = Table 10, read-out: HBE Max activity (%)
[4] = Table 11, read-out: HBE Max Activity (%)
[5] = Table 12, at 10 μM, read-out: HBE Activity at 10 μM (%)
[6] = HBE assay, 10 μM, read-out: HBE Activity at 10 μM (%)
[7] = Table 10, at 10 μM, read-out: HBE activity at 10 (μM) (%)
[8] = HBE assay, read-out: HBE Max activity (%)

pEC50 (Table 12): > 6.00
Emax [2]: > 60%
Structure (SMILES): Cc1cccc(C)c1-c1cc2nc(n1)NS(=O)(=O)c1cccc(c1)C(=O)N(Cc1cccc(CCC(C)(C)C)n1)[C@H](CC(C)(C)C)CO2 [Compound 582]

pEC50 (Table 12): > 6.00
Emax [2]: > 60%
Structure (SMILES): Cc1cccc(C)c1-c1cc2nc(n1)NS(=O)(=O)c1cccc(c1)C(=O)N(Cc1cccc(/C=C/C(C)(C)C)n1)[C@H](CC(C)(C)C)CO2 [Compound 588]

pEC50 (Table 10): > 6.00
Emax [3]: > 60%
Structure (SMILES): Cc1cccc(C)c1-c1cc2nc(n1)NS(=O)(=O)c1cccc(c1)C(=O)N(Cc1cc(N3CCOCC3)ccn1)[C@H](CC(C)(C)C)CO2 [Compound 375]

pEC50 (Table 12): > 6.00
Emax [2]: > 60%
Structure (SMILES): CC(C)=Cc1nccc(CN2C(=O)c3cccc(c3)S(=O)(=O)Nc3nc(cc(-c4c(C)cccc4C)n3)OC[C@H]2CC(C)(C)C)n1 [Compound 596]

pEC50 (Table 11): > 6.00
Emax [4]: > 60%
Structure (SMILES): Cc1cccc(C)c1-c1cc2nc(n1)NS(=O)(=O)c1cccc(c1)C(=O)N(Cc1nccc(C(C)C)n1)[C@H](CC(C)(C)C)CO2 [Compound 121, (11R)-6-(2,6-Dimethylphenyl)-11-(2,2-dimethylpropyl)-12-[(4-isopropylpyrimidin-2-yl)methyl]-2,2-dioxo-9-oxa-2λ^6-thia-3,5,12,19-tetrazatricyclo[12.3.1.14,8]nonadeca-1(18),4(19),5,7,14,16-hexaen-13-one]

pEC50 (Table 10): > 6.00
Structure (SMILES): Cc1cccc(C)c1-c1cc2nc(n1)NS(=O)(=O)c1cccc(c1)C(=O)N(CC1CCC(N3C[C@@H](C)O[C@@H](C)C3)CC1)[C@H](CC(C)(C)C)CO2 (some centres unmarked) [Compound 914]

activation at 10 µM [1]: > 600%
pEC50 (Table 13): > 6.00
Emax (Table 13, read-out: HBE Max Activity (%)): > 60%
Structure (SMILES): Cc1cccc(C)c1-c1cc2nc(n1)NS(=O)(=O)c1cccc(c1)C(=O)N(Cc1cccc(N3CCC34CCOCC4)n1)[C@H](CC(C)(C)C)CO2 [Compound 536]

pEC50 (Table 11): > 6.00
Emax [4]: > 60%
Structure (SMILES): Cc1cccc(C)c1-c1cc2nc(n1)NS(=O)(=O)c1cccc(c1)C(=O)N(CC1CN(C(=O)OC(C)(C)C)CCO1)[C@H](CC(C)(C)C)CO2 (some centres unmarked) [Compound 723]

activation at 10 µM [1]: > 600%
Structure (SMILES): Cc1cccc(C)c1-c1cc2nc(n1)NS(=O)(=O)c1cccc(c1)C(=O)N(CC(=O)N1CCC[C@H](c3ccccc3)C1)[C@H](CC(C)(C)C)CO2 [Compound 195]

pEC50 (HBE assay): > 6.00
Emax [8]: > 60%
Structure (SMILES): Cc1cccc(C)c1-c1cc2nc(n1)NS(=O)(=O)c1cccc(c1)C(=O)N(Cc1ncc(OC3CC(F)(F)C3)cn1)[C@H](CC(C)(C)C)CO2 [Compound 1397]

pEC50 (Table 11): > 6.00
Emax [4]: > 60%
Structure (SMILES): Cc1cccc(C)c1-c1cc2nc(n1)NS(=O)(=O)c1cccc(c1)C(=O)N(Cc1nccc(N(C)CC(C)(C)C)n1)[C@H](CC(C)(C)C)CO2 [Compound 650]

pEC50 (Table 11): 5.52 to 6.00
Emax [4]: > 60%
Structure (SMILES): CCN(CC)c1cccc(CN2C(=O)c3cccc(c3)S(=O)(=O)Nc3nc(cc(-c4c(C)cccc4C)n3)OC[C@H]2CC(C)(C)C)n1 [Compound 711]

pEC50 (Table 12): > 6.00
Emax [2]: > 60%
Structure (SMILES): Cc1cccc(C)c1-c1cc2nc(n1)NS(=O)(=O)c1cccc(c1)C(=O)N(Cc1cccc(NC34CC(C3)C4)n1)[C@H](CC(C)(C)C)CO2 [Compound 440]

The remaining lines, values behind:

Structure (SMILES): Cc1cccc(C)c1-c1cc2nc(n1)NS(=O)(=O)c1cccc(c1)C(=O)N(Cc1ccc(Br)cn1)[C@H](CC(C)(C)C)CO2 [Compound 993]
activation at 10 µM [1]: > 600%

Structure (SMILES): Cc1cccc(C)c1-c1cc2nc(n1)NS(=O)(=O)c1cccc(c1)C(=O)N(CC1OCCCC1(C)C)[C@H](CC(C)(C)C)CO2 (single isomer, unassigned) [Compound 35]
activation at 10 µM (Table 11, at 10 μM, read-out: HBE Activity at 10 μM (%)): > 60%

Structure (SMILES): Cc1cccc(C)c1-c1cc2nc(n1)NS(=O)(=O)c1cccc(c1)C(=O)N(Cc1ncccc1N(C)C)[C@H](CC(C)(C)C)CO2 [Compound 379]
pEC50 (Table 10): > 6.00
Emax [3]: > 60%

Structure (SMILES): CO[C@@H]1CCN(c2cnc(CN3C(=O)c4cccc(c4)S(=O)(=O)Nc4nc(cc(-c5c(C)cccc5C)n4)OC[C@H]3CC(C)(C)C)nc2)C1 [Compound 623]
pEC50 (Table 11): > 6.00
Emax [4]: > 60%

Structure (SMILES): Cc1cc(C)nc(CN2C(=O)c3cccc(c3)S(=O)(=O)Nc3nc(cc(-c4c(C)cccc4C)n3)OC[C@H]2CC(C)(C)C)n1 [Compound 1009]
pEC50 (Table 12): > 6.00
Emax [2]: > 60%

Structure (SMILES): Cc1cccc(C)c1-c1cc2nc(n1)NS(=O)(=O)c1cccc(c1)C(=O)N(CC(=O)NC1CCCCC1(C)C)[C@H](CC(C)(C)C)CO2 (some centres unmarked) [Compound 178]
activation at 10 µM [1]: > 600%

Structure (SMILES): Cc1cccc(C)c1-c1cc2nc(n1)NS(=O)(=O)c1cccc(c1)C(=O)N(CC1CC(C)(C)C1)[C@H](CC(C)(C)C)CO2 [Compound 1007]
activation at 10 µM [5]: > 600%

Structure (SMILES): Cc1cccc(C)c1-c1cc2nc(n1)NS(=O)(=O)c1cccc(c1)C(=O)N(CC(=O)N1CCc3ccccc3C1)[C@H](CC(C)(C)C)CO2 [Compound 207]
activation at 10 µM [1]: > 600%

Structure (SMILES): Cc1cccc(C)c1-c1cc2nc(n1)NS(=O)(=O)c1cccc(c1)C(=O)N(Cc1cc(N3CCCCC3)ccn1)[C@H](CC(C)(C)C)CO2 [Compound 888]
pEC50 (Table 11): > 6.00
Emax [4]: > 60%

Structure (SMILES): Cc1cccc(C)c1-c1cc2nc(n1)NS(=O)(=O)c1cccc(c1)C(=O)N(Cc1cnc(N(C)CCOC(C)C)o1)[C@H](CC(C)(C)C)CO2 [Compound 1460]
activation at 10 µM [6]: > 60%

Structure (SMILES): COc1ccc2nc3c(cc2c1)CN1C(O3)c2cccc(c2)S(=O)(=O)Nc2nc(cc(-c3c(C)cccc3C)n2)OC[C@H]1CC(C)(C)C (some centres unmarked) [Compound 754]
activation at 10 µM [7]: > 60%

Structure (SMILES): Cc1cccc(C)c1C1CC2NC(N1)NS(=O)(=O)C1CCCC(C1)C(=O)N(Cc1cccc(-c3c[nH]nc3C(C)(C)C)c1)[C@H](CC(C)(C)C)CO2 (some centres unmarked) [Compound 309]
Emax [3]: > 60%

Structure (SMILES): Cc1cccc(C)c1-c1cc2nc(n1)NS(=O)(=O)c1cccc(c1)C(=O)N(Cc1ncc(N3CC(C)(C)C3)cn1)[C@H](CCC(C)C)CO2 [Compound 1309, (11R)-12-[[5-(3,3-Dimethylazetidin-1-yl)pyrimidin-2-yl]methyl]-6-(2,6-dimethylphenyl)-11-isopentyl-2,2-dioxo-9-oxa-2λ^6-thia-3,5,12,19-tetrazatricyclo[12.3.1.14,8]nonadeca-1(18),4(19),5,7,14,16-hexaen-13-one]
activation at 10 µM [6]: > 60%

Structure (SMILES): Cc1cccc(C(C)C)c1-c1cc2nc(n1)NS(=O)(=O)c1cccc(c1)C(=O)N(Cc1cnc(C3CCOCC3)cn1)[C@H](CC(C)(C)C)CO2 [Compound 1064]
pEC50 (Table 12): > 6.00
Emax [2]: > 60%

Structure (SMILES): Cc1cccc(C)c1-c1cc2nc(n1)NS(=O)(=O)c1cccc(c1)C(=O)N(Cc1ccn(C)n1)[C@H](CC(C)(C)C)CO2 [Compound 825]
activation at 10 µM [7]: > 60%

Structure (SMILES): Cc1cccc(C)c1-c1cc2nc(n1)NS(=O)(=O)c1cccc(c1)C(=O)N(Cc1cccc(N3CCC(C)(O)CC3)n1)[C@H](CC(C)(C)C)CO2 [Compound 721]
pEC50 (Table 11): > 6.00
Emax [4]: > 60%

Structure (SMILES): Cc1cccc(C)c1-c1cc2nc(n1)NS(=O)(=O)c1cccc(c1)C(=O)N(CCc1ccc(C3CCCCC3)cn1)[C@H](CC(C)(C)C)CO2 [Compound 112, (11R)-12-[2-(5-Cyclohexyl-2-pyridyl)ethyl]-6-(2,6-dimethylphenyl)-11-(2,2-dimethylpropyl)-2,2-dioxo-9-oxa-2λ^6-thia-3,5,12,19-tetrazatricyclo[12.3.1.14,8]nonadeca-1(18),4(19),5,7,14,16-hexaen-13-one]
pEC50 (Table 11): > 6.00
Emax [4]: > 60%

Structure (SMILES): Cc1cccc(C)c1-c1cc2nc(n1)NS(=O)(=O)c1cccc(c1)C(=O)N(Cc1cccc(NC3CCOCC3)n1)[C@H](CC(C)(C)C)CO2 [Compound 1419]
pEC50 (HBE assay): > 6.00
Emax [8]: > 60%

Structure (SMILES): Cc1cccc(C)c1-c1cc2nc(n1)NS(=O)(=O)c1cccc(c1)C(=O)N(Cc1cc(C)n(C)n1)[C@H](CC(C)(C)C)CO2 [Compound 828]
activation at 10 µM [7]: > 60%

Structure (SMILES): Cc1cccc(C)c1-c1cc2nc(n1)NS(=O)(=O)c1cccc(c1)C(=O)N(Cc1cccc(N(C)C(C)C)n1)[C@H](CC(C)(C)C)CO2 [Compound 737]
pEC50 (Table 11): > 6.00
Emax [4]: > 60%

Structure (SMILES): COc1ncc(-c2ccc(CN3C(=O)c4cccc(c4)S(=O)(=O)Nc4nc(cc(-c5c(C)cccc5C)n4)OC[C@H]3CC(C)(C)C)cc2)cn1 [Compound 783]
pEC50 (Table 10): > 6.00
Emax [3]: > 60%

Structure (SMILES): Cc1cccc(C)c1-c1cc2nc(n1)NS(=O)(=O)c1cccc(c1)C(=O)N(Cc1ncc(N3CCC(C)(F)CC3)cn1)[C@H](CC(C)(C)C)CO2 [Compound 1442]
activation at 10 µM [6]: > 60%

Structure (SMILES): Cc1cccc(C)c1-c1cc2nc(n1)NS(=O)(=O)c1cccc(c1)C(=O)N(Cc1cnc3ccccn13)[C@H](CC(C)(C)C)CO2 [Compound 879]
activation at 10 µM [5]: > 600%

Structure (SMILES): COCCN(C)c1cnc(CN2C(=O)c3cccc(c3)S(=O)(=O)Nc3nc(cc(-c4c(C)cccc4C)n3)OC[C@H]2CC(C)(C)C)c(C)c1 [Compound 1381]
pEC50 (HBE assay): > 6.00
Emax [8]: > 60%

Structure (SMILES): Cc1cccc(C)c1-c1cc2nc(n1)NS(=O)(=O)c1cccc(c1)C(=O)N(Cc1ccccc1OCC(C)(C)OO)[C@H](CC(C)(C)C)CO2 [Compound 781]
pEC50 (Table 10): > 6.00
Emax [3]: > 60%

Structure (SMILES): Cc1cccc(C)c1-c1cc2nc(n1)NS(=O)(=O)c1cccc(c1)C(=O)N(Cc1ccc(N3CCC(C)(C)C3)nc1)[C@H](CC(C)(C)C)CO2 [Compound 883]
pEC50 (Table 12): > 6.00
Emax [2]: > 60%

Structure (SMILES): Cc1cccc(C)c1-c1cc2nc(n1)NS(=O)(=O)c1cccc(c1)C(=O)N(Cc1cccc(CO)n1)[C@H](CC(C)(C)C)CO2 [Compound 816]
pEC50 (Table 11): > 6.00
Emax [4]: > 60%

Structure (SMILES): Cc1cccc(C)c1-c1cc2nc(n1)NS(=O)(=O)c1cccc(c1)C(=O)N(Cc1cc(C3CC3)on1)[C@H](CC(C)(C)C)CO2 [Compound 1071]
pEC50 (Table 11): > 6.00
Emax [4]: > 60%
